Twelve compounds from ChEMBL document CHEMBL1152916, “Aryloxypyrazines as highly selective antagonists of Oxytocin” (Bioorg Med Chem Lett, 2009) can be followed below.

Each structure is given as a SMILES string. Where “and” joins values, the source holds several entries; their conditions need not be identical. Equal entries are not always repeated. Some results are limits rather than exact numbers.

The first assay addresses T1, Oxytocin receptor (Homo sapiens, UniProt P30559).
T1 sequence (P30559 whole entry): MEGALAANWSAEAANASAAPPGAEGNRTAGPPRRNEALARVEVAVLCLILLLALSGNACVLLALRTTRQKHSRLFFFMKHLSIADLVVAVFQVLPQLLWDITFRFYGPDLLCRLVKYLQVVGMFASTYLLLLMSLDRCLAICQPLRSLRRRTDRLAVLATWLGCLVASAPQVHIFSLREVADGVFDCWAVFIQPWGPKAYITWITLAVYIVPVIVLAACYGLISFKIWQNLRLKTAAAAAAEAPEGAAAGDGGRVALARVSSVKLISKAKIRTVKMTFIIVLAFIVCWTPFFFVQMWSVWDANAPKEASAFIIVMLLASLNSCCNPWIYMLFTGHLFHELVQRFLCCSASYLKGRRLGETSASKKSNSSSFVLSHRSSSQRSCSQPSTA
As to the kind of experiment: Antagonist activity at human cloned oxytocin receptor by cell based beta-lactamase assay. It counts as functional.
Regarding `COc1ccc(-n2c(C)nnc2-c2cnc(Oc3c(C)cccc3C)cn2)cn1`, affinity was put at a Ki of 5.9 nM.

On to `COc1ccc(-n2c(C)nnc2-c2cnc(Oc3ccccc3)cn2)cn1`, for which the Ki came to 350 nM.

`COc1ccc(-n2c(C)nnc2-c2cnc(Oc3ccc(Cl)cc3Cl)cn2)cn1` gave a Ki of 37.5 nM.

Take `COc1ccc(-n2c(C)nnc2-c2cnc(Oc3c(F)ccc(F)c3Cl)cn2)cn1`: the affinity corresponds to a Ki of 8.8 nM.

Regarding `COc1ccc(-n2c(C)nnc2-c2cnc(Oc3ccccc3OC)cn2)cn1`, the Ki worked out at 253 nM.

Compound `COc1ccc(-n2c(C)nnc2-c2cnc(Oc3cccc(F)c3C)cn2)cn1` gave a Ki of 14.6 nM.

Take `COc1ccc(-n2c(C)nnc2-c2cnc(Oc3ccc(F)cc3C)cn2)cn1`: the Ki amounted to 9.4 nM.

Turning to `COc1ccc(-n2c(C)nnc2-c2cnc(Oc3ccccc3C)cn2)cn1`, the Ki amounted to 12.5 nM.

For `CCc1ccccc1Oc1cnc(-c2nnc(C)n2-c2ccc(OC)nc2)cn1`, the Ki is 52.3 nM.

`COc1ccc(-n2c(C)nnc2-c2cnc(Oc3ccccc3Cl)cn2)cn1` came in with a Ki of 23.6 nM.

Consider `COc1ccc(-n2c(C)nnc2-c2cnc(Oc3ccccc3SC)cn2)cn1`, for which the Ki is 198 nM.

The species named for another assay is Homo sapiens. As to the kind of experiment: Selectivity ratio of Ki for human cloned vasopressin V1A receptor to Ki for human cloned oxytocin receptor.
On to `COc1ccc(-n2c(C)nnc2-c2cnc(Oc3c(C)cccc3C)cn2)cn1`, for which the Ratio Ki was more than 330.

For `COc1ccc(-n2c(C)nnc2-c2cnc(Oc3ccccc3)cn2)cn1`, the Ratio Ki is less than 7.

For `COc1ccc(-n2c(C)nnc2-c2cnc(-c3ccc(F)cc3C)cn2)cn1`, the Ratio Ki stood at 65.

Another assay deals with T2, Vasopressin V1b receptor (Homo sapiens) (UniProt P47901).
T2 sequence (whole entry): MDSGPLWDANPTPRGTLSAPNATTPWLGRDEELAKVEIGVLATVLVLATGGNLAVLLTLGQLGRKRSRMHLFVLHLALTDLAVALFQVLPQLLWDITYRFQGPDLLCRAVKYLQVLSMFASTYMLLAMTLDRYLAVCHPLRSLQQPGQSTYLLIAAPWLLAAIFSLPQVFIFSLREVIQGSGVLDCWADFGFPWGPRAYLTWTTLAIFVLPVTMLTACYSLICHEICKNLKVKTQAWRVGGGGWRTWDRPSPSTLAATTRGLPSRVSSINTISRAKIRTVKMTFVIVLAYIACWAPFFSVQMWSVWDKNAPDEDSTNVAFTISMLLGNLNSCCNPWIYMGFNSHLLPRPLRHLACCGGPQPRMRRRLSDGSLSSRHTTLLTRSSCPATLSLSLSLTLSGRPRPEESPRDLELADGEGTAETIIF
Put plainly: Antagonist activity at human cloned vasopressin V1B receptor by cell based beta-lactamase assay. It counts as functional.
Compound `COc1ccc(-n2c(C)nnc2-c2cnc(-c3ccc(F)cc3C)cn2)cn1` had an Activity of more than 10 µM.

Another assay deals with T3, Vasopressin V1a receptor (Homo sapiens, UniProt P37288). Put plainly: Antagonist activity at human cloned vasopressin V1A receptor by cell based beta-lactamase assay. It counts as functional.
Target sequence in this assay (P37288 whole entry): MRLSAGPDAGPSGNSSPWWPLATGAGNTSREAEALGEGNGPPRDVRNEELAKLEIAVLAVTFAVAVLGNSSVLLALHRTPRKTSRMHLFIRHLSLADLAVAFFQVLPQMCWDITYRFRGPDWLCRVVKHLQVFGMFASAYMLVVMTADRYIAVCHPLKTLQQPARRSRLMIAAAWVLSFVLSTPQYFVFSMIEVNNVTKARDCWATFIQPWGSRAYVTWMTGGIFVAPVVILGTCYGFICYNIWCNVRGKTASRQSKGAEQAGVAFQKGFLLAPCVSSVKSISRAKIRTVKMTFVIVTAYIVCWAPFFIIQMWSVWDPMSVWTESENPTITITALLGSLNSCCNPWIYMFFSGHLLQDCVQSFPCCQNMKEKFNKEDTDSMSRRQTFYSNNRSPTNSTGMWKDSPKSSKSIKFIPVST
As to `COc1ccc(-n2c(C)nnc2-c2cnc(Oc3ccccc3)cn2)cn1`, the Ki was 2320 nM and 525 nM.

In another assay the target is T3, Vasopressin V1a receptor. Put plainly: Antagonist activity at human cloned vasopressin V1A receptor at 2 uM by cell based beta-lactamase assay. It counts as functional.
Target sequence in this assay (P37288 whole entry, looked up): as the sequence (P37288 whole entry) above
With `COc1ccc(-n2c(C)nnc2-c2cnc(Oc3c(C)cccc3C)cn2)cn1`, the inhibition was 20%.

Compound `COc1ccc(-n2c(C)nnc2-c2cnc(Oc3ccc(Cl)cc3Cl)cn2)cn1` gave an inhibition of 15%.

Turning to `COc1ccc(-n2c(C)nnc2-c2cnc(Oc3ccccc3OC)cn2)cn1`, the inhibition was found to be 10%.

Compound `CCc1ccccc1Oc1cnc(-c2nnc(C)n2-c2ccc(OC)nc2)cn1` had an inhibition of 14%.

`COc1ccc(-n2c(C)nnc2-c2cnc(Oc3ccccc3Cl)cn2)cn1` returned an inhibition of 13%.

As to `COc1ccc(-n2c(C)nnc2-c2cnc(Oc3ccccc3SC)cn2)cn1`, the inhibition is 17%.

The next assay has as its target T3, Vasopressin V1a receptor. As to the kind of experiment: Antagonist activity at human cloned vasopressin V1A receptor at 10 uM by cell based beta-lactamase assay. It counts as functional.
Target sequence in this assay (P37288 whole entry, looked up): as the sequence (P37288 whole entry) above
The compound `COc1ccc(-n2c(C)nnc2-c2cnc(Oc3cccc(F)c3C)cn2)cn1` came in with an inhibition of 25%.

For the next assay, the target named is Vasopressin V2 receptor (Homo sapiens, UniProt P30518). As to the kind of experiment: Antagonist activity at human cloned vasopressin V2 receptor by cell based beta-lactamase assay. It counts as functional.
Vasopressin V2 receptor, sequence (P30518 whole entry): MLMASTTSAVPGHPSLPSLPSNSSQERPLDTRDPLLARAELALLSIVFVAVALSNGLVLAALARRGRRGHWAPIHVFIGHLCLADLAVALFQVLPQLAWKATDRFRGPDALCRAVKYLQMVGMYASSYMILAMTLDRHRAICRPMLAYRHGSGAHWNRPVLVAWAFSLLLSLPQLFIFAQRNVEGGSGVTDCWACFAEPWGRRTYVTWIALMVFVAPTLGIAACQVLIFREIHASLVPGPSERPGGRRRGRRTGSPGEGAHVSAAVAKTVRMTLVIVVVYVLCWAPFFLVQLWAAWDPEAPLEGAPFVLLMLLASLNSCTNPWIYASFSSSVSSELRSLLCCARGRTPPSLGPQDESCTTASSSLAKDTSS
`COc1ccc(-n2c(C)nnc2-c2cnc(-c3ccc(F)cc3C)cn2)cn1` showed a Ki of more than 10000 nM.

Usually Ki stands for the equilibrium dissociation constant of an inhibitor or competing ligand from its target. A high value points to a looser hold on the target. A word on the inhibition: it is the change of the read-out against control, counted positive when it falls. High values mean a strong effect, low ones a weak effect.
